From paper PMC8213057, “Targeting ALK2: An Open Science Approach to Developing Therapeutics for the Treatment of Diffuse Intrinsic Pontine Glioma” (Journal of Medicinal Chemistry, 2020)

Tests used:
[1] = molecular target: T1, ALK3/BMPR1A (Homo sapiens, UniProt P36894); assay: 375-member kinase panel; assay type: biochemical; conditions: Run 1, Run 2; for % enzyme activity: 1 μM; for remaining activity at 1 µM: read-out: % enzyme activity, 1 μM
T1 construct: purchased Reaction Biology Corporation

[2] = molecular target: T2, EPHA1 (Homo sapiens, UniProt P21709); assay: biochemical; conditions: read-out: % enzyme activity, 1 μM; Run 1, Run 2
T2 sequence (P21709 26-976): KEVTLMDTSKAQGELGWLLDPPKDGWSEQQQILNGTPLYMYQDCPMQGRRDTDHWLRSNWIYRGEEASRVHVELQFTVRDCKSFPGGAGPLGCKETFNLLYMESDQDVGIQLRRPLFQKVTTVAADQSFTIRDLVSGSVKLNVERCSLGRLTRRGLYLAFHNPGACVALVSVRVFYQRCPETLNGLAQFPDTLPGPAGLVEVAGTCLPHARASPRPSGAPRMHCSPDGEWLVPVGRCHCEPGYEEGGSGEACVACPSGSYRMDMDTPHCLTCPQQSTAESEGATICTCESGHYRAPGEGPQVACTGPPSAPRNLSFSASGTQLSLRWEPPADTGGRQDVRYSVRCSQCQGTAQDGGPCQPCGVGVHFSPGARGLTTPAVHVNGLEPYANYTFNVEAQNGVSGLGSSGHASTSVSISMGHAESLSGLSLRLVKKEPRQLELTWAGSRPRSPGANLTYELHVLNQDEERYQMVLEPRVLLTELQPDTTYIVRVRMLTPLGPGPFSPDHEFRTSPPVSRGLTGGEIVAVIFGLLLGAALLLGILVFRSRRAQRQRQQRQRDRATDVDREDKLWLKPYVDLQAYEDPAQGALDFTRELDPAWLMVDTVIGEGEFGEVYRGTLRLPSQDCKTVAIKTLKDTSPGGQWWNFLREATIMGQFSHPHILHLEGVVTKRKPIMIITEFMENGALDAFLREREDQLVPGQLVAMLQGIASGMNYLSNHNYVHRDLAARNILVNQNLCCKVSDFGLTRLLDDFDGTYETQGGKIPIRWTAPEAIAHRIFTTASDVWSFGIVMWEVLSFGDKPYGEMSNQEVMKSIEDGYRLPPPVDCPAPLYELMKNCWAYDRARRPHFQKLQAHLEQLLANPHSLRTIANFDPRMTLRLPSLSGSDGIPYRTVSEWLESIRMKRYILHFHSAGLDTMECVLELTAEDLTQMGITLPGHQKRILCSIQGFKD

[3] = molecular target: CAMK1d (Homo sapiens, UniProt Q8IU85); conditions: 1 μM; Run 1, Run 2
[4] = molecular target: MLCK/MYLK (Homo sapiens, UniProt Q15746); assay: biochemical; conditions: read-out: % enzyme activity, 1 μM; Run 1, Run 2
[5] = molecular target: RSK2 (Homo sapiens, UniProt P51812); assay: biochemical; conditions: read-out: % enzyme activity, 1 μM; Run 1, Run 2
[6] = molecular target: EGFR (Homo sapiens, UniProt P00533); assay: biochemical; conditions: read-out: % enzyme activity, 1 μM; Run 1, Run 2
[7] = molecular target: T3, MUSK (Homo sapiens, UniProt O15146); conditions: 1 μM; Run 1, Run 2
T3 sequence (O15146 24-869): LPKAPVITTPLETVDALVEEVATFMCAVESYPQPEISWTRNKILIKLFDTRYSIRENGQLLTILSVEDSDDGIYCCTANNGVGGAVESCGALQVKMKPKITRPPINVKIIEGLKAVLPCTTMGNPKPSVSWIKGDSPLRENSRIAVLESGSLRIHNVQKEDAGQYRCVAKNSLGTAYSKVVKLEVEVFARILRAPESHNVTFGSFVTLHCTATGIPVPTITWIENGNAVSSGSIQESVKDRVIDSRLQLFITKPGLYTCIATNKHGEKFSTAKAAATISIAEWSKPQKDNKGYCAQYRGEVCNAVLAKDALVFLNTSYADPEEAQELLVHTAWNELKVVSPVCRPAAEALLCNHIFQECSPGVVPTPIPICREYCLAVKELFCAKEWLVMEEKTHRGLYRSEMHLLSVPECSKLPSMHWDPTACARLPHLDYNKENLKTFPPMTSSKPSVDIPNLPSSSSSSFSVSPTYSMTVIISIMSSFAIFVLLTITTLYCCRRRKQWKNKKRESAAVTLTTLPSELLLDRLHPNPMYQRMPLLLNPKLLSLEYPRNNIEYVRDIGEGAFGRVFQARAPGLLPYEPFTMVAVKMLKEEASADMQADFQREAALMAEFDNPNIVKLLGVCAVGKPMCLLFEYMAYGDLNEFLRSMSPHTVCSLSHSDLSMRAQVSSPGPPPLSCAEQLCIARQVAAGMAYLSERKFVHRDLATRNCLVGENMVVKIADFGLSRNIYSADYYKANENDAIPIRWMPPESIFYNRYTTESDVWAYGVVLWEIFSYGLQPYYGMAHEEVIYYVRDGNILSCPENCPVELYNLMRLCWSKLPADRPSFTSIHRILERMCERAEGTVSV

[8] = molecular target: T4, TSSK3/STK22C (Homo sapiens, UniProt Q96PN8); conditions: 1 μM; Run 1, Run 2
T4 sequence (Q96PN8 1-268): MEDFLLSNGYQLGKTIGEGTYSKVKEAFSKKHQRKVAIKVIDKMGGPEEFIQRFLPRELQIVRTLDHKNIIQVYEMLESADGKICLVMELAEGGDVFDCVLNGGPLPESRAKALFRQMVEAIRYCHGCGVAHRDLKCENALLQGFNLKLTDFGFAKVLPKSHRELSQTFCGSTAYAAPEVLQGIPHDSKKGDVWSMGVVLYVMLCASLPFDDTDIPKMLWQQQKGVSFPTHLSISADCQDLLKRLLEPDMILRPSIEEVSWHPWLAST

[9] = molecular target: OSR1/OXSR1 (Homo sapiens, UniProt O95747); conditions: 1 μM; Run 1, Run 2
OSR1/OXSR1, sequence (O95747 whole entry): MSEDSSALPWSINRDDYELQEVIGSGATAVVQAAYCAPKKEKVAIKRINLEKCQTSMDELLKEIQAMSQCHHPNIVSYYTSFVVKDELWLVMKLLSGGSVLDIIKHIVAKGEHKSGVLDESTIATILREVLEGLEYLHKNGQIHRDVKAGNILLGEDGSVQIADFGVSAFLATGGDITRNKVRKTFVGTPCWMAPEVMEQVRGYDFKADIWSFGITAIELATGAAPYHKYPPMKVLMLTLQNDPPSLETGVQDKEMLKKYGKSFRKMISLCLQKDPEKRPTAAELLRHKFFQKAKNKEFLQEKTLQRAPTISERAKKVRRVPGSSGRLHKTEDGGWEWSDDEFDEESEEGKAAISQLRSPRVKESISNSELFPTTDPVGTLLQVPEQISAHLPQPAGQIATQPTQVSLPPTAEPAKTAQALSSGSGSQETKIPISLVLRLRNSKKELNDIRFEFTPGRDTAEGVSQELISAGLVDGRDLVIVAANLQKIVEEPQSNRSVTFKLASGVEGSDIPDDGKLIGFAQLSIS

T1 sequence (P36894 24-532): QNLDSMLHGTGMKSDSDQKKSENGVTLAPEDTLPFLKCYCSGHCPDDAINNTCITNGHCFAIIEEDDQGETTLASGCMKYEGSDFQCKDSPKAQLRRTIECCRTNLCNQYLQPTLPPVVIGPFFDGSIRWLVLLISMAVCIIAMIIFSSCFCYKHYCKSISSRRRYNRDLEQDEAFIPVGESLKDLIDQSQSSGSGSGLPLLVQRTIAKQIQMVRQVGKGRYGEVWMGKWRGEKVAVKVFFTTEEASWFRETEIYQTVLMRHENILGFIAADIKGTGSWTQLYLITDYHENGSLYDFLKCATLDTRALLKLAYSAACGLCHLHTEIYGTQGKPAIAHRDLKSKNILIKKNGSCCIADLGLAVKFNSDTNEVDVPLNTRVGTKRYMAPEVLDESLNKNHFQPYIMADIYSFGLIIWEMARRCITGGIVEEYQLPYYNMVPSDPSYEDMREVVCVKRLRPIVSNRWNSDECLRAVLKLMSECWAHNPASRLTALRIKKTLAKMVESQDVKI
RSK2, sequence (P51812 whole entry): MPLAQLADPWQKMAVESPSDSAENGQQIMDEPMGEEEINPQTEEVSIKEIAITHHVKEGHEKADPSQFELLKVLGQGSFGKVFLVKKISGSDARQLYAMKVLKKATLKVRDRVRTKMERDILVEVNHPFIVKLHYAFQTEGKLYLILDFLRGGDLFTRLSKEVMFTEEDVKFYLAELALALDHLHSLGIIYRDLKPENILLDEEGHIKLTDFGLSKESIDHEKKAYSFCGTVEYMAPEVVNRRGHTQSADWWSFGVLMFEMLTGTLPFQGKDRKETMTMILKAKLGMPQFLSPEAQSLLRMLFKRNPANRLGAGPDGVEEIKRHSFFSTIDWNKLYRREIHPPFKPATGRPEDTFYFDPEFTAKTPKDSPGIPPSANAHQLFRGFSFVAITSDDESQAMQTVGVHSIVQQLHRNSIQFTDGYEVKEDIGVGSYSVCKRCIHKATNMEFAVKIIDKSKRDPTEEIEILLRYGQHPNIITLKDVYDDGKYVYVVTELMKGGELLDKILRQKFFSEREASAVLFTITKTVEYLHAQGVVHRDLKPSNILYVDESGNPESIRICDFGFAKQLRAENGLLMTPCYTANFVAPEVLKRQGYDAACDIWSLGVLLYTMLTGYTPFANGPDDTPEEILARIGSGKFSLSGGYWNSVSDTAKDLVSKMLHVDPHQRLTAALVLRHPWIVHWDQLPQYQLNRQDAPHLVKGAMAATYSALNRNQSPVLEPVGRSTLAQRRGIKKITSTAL
CAMK1d, sequence (Q8IU85 whole entry): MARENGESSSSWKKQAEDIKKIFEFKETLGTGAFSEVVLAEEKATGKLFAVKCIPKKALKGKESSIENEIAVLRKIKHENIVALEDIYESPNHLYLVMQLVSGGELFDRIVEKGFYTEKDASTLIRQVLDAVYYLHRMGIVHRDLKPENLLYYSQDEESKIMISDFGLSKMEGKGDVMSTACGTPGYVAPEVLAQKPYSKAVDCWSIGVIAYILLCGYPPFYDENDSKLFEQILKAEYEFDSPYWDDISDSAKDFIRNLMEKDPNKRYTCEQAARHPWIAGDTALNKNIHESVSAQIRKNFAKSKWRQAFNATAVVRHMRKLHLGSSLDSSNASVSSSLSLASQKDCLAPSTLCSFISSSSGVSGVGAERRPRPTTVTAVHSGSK
EGFR, sequence (P00533 25-1210): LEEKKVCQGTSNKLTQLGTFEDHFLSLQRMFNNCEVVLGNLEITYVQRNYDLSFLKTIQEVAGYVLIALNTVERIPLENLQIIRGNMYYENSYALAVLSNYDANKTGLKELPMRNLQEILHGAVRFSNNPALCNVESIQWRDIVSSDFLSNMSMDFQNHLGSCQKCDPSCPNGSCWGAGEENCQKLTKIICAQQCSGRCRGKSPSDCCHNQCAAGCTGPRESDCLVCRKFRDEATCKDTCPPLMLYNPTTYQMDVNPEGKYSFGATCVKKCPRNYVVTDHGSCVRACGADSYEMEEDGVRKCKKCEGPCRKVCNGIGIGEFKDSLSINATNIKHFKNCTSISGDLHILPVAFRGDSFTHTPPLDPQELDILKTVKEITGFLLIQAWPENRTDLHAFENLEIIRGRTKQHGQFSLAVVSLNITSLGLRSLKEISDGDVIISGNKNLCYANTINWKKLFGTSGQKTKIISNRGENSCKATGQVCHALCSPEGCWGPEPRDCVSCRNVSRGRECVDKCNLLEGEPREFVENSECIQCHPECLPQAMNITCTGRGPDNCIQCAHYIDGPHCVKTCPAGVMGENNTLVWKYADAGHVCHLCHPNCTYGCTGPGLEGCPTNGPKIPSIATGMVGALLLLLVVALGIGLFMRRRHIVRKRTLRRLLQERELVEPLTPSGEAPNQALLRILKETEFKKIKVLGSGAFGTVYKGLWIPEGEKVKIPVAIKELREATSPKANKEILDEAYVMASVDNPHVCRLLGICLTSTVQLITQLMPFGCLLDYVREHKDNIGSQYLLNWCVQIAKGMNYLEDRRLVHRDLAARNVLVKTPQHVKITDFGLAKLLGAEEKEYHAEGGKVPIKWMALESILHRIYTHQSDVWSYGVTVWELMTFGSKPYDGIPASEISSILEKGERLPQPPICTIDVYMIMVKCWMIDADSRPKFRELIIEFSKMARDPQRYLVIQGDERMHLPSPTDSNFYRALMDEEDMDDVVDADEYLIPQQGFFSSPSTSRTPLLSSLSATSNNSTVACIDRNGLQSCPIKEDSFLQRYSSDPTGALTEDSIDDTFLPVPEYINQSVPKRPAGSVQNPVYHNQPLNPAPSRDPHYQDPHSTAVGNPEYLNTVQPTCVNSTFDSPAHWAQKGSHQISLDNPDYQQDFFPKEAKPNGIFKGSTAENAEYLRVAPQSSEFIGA

SMILES: COc1cc(-c2cncc(-c3ccc(N4CCN(C)CC4)cc3)c2C)cc(F)c1C(N)=O [Compound 26a, 2-Fluoro-6-methoxy-4-(4-methyl-5-(4-(4-methylpiperazin-1-yl)phenyl)pyridin-3-yl)benzamide]
- % enzyme activity [1]: 40.21%
- remaining activity at 1 µM [1]: 38.4%
- remaining activity at 1 µM [2]: 97.5%
- % enzyme activity [3]: 98.20%
- remaining activity at 1 µM [4]: 106%
- remaining activity at 1 µM [5]: 101%
- remaining activity at 1 µM [6]: 96%
- % enzyme activity [7]: 91.48%
- % enzyme activity [8]: 96.02%
- % enzyme activity [9]: 93.34%

SMILES: COc1cc(-c2cncc(-c3ccc(N4C[C@@H](C)N(C)[C@@H](C)C4)cc3)c2C)cc(F)c1C(N)=O [Compound 26c, 2-Fluoro-6-methoxy-4-(4-methyl-5-(4-((3R,5S)-3,4,5-trimethylpiperazin-1-yl)phenyl)pyridin-3-yl)benzamide]
- % enzyme activity [1]: 50.46%
- remaining activity at 1 µM [1]: 50%
- remaining activity at 1 µM [2]: 93.3%
- % enzyme activity [3]: 97.72%
- remaining activity at 1 µM [4]: 103%
- remaining activity at 1 µM [5]: 103%
- remaining activity at 1 µM [6]: 95.3%
- % enzyme activity [7]: 90.22%
- % enzyme activity [8]: 95.64%
- % enzyme activity [9]: 94.75%
